Publication PMC11667666, “Light-Driven Hybrid Nanoreactor Harnessing the Synergy of Carboxysomes and Organic Frameworks for Efficient Hydrogen Production” (ACS Catalysis, 2024)

Target: T1, recombinant α-carboxysome shell (Halothiobacillus neapolitanus, UniProt P45688+P45689+P45690)
T1 construct: gene csoS1A; whole self-assembled multi-paralog shell (about 90 nm) from pBAD-cso-2 in E. coli; CsoS1 hexamers, CsoS4 pentamers, CsoS2 linker; with Carboxysome shell vertex protein CsoS4A; Carboxysome shell vertex protein CsoS4B; Carboxysome assembly protein CsoS2
Assay: isothermal titration calorimetry
Type: binding
Conditions: TBAP (50 μM) titrated into whole shell (3.75 μM); 20 mM Tris-HCl pH 8.0, 150 mM NaCl; multi-protein particle, site not resolved by ITC

T1 sequence (O85044 whole entry): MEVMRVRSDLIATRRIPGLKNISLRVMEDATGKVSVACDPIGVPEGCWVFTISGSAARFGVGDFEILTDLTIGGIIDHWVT
T1 sequence (P45688 whole entry): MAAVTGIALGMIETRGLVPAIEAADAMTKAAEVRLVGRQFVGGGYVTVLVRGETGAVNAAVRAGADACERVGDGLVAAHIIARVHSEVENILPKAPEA
T1 sequence (O85041 whole entry, further chain): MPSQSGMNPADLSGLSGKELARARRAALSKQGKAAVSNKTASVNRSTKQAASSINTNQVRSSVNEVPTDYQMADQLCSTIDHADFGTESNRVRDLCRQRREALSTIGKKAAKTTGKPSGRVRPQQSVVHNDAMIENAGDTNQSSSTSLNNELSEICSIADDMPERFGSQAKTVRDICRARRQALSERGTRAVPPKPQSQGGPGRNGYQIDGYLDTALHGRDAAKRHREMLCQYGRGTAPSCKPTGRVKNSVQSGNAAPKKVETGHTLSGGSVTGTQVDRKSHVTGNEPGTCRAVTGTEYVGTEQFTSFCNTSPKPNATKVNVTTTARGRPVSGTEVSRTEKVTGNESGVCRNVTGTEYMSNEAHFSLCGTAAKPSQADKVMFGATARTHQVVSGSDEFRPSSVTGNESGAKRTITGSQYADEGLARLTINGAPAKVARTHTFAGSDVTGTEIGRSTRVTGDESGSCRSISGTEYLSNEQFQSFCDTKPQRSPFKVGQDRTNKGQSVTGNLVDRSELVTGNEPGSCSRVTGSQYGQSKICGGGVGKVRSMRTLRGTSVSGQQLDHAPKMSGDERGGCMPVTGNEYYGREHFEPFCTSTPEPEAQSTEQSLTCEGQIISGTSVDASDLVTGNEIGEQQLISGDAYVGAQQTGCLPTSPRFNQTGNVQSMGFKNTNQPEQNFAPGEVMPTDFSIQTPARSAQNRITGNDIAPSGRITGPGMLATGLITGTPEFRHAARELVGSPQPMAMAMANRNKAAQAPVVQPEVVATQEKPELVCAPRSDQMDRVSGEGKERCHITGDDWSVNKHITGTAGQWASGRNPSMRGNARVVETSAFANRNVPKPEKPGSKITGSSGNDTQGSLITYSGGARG
T1 sequence (O85043 whole entry, further chain): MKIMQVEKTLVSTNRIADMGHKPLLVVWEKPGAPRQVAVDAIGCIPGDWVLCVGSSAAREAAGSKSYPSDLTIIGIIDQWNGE
T1 sequence (P45689 2-98): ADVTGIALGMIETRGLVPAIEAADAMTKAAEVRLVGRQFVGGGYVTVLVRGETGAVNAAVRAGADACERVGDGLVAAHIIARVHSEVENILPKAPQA
T1 sequence (P45690 whole entry): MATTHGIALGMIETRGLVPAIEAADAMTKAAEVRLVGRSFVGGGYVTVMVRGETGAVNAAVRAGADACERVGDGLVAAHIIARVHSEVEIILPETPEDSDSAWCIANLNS

SMILES: O=C(O)c1ccc(-c2cc(-c3ccc(C(=O)O)cc3)c3ccc4c(-c5ccc(C(=O)O)cc5)cc(-c5ccc(C(=O)O)cc5)c5ccc2c3c54)cc1 [TBAP, 1,3,6,8-tetra(4′-carboxyphenyl)pyrene]
- Kd: 0.524 µM
